Reference: ChEMBL document CHEMBL5463729, “Data for DCP probe BAY 1753011” (2023)
Values belong to the compound of their own block, whether it stands above or below them.

Key:
[1] = biological target: Vasopressin V1a receptor (Homo sapiens, UniProt P37288); assay: Assay with bioluminescence detection (AVPR1). (The vasopressin receptor cells react to stimulation of the recombinantly expressed V1a receptors by intracellular release of calcium ions, which can be quantified by the resulting photoprotein luminescence).; assay type: functional, cell-based, CHO-K1
[2] = biological target: Tyrosine-protein kinase Fes/Fps (Homo sapiens) (UniProt P07332); assay: Inhibition of Fes(h) at 10.0 µM in the Eurofins Kinase panel; details: Compound concentration 10.0 uM
[3] = biological target: Serine/threonine-protein kinase ICK (Homo sapiens) (UniProt Q9UPZ9); assay: Inhibition of ICK(h) at 10.0 µM in the Eurofins Kinase panel; details: Compound concentration 10.0 uM
Serine/threonine-protein kinase ICK (Homo sapiens), sequence (Q9UPZ9 whole entry): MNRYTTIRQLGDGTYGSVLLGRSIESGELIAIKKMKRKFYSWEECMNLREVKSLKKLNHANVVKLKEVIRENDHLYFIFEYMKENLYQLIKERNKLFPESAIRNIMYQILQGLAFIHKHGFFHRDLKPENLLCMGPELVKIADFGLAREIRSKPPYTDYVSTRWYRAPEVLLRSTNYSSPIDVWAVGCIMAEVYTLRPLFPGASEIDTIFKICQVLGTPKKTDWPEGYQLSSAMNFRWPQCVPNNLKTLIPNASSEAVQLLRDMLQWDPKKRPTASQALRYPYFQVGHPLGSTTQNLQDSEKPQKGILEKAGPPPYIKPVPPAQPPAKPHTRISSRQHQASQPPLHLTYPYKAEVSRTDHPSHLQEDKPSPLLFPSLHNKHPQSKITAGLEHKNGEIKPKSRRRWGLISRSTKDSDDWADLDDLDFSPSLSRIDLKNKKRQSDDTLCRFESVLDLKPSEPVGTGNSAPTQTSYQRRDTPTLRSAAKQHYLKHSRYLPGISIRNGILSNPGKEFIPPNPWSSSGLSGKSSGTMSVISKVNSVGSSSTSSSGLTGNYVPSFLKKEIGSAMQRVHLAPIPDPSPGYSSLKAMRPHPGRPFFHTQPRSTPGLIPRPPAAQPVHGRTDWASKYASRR

[4] = biological target: Hepatocyte growth factor receptor (Homo sapiens) (UniProt P08581); assay: Inhibition of Met(h) at 10.0 µM in the Eurofins Kinase panel; details: Compound concentration 10.0 uM
[5] = biological target: [Pyruvate dehydrogenase (acetyl-transferring)] kinase isozyme 2, mitochondrial (Homo sapiens) (UniProt Q15119); assay: Inhibition of PDHK2(h) at 10.0 µM in the Eurofins Kinase panel; details: Compound concentration 10.0 uM
[6] = biological target: STE20-like serine/threonine-protein kinase (Homo sapiens) (UniProt Q9H2G2); assay: Inhibition of SLK(h) at 10.0 µM in the Eurofins Kinase panel; details: Compound concentration 10.0 uM
[7] = biological target: Sodium-dependent dopamine transporter (Homo sapiens) (UniProt Q01959); details: Compound concentration 10.0 uM
Sodium-dependent dopamine transporter (Homo sapiens), sequence (Q01959 whole entry): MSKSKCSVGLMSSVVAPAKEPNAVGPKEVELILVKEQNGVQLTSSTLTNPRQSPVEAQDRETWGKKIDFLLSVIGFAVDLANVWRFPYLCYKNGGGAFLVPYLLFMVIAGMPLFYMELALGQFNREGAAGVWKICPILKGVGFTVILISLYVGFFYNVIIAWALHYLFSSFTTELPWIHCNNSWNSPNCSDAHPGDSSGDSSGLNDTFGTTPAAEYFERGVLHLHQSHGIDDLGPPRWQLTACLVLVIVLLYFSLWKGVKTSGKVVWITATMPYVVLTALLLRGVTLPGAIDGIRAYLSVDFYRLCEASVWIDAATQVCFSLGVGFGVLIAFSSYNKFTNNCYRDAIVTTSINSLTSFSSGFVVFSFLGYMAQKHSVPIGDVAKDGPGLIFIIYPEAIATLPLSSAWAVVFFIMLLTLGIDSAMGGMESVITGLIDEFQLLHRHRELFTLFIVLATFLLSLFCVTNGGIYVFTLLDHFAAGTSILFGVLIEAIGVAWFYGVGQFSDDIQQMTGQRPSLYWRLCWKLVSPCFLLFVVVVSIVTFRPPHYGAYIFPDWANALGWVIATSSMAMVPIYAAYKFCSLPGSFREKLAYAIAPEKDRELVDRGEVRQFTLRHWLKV

[8] = biological target: Histamine H2 receptor (Homo sapiens) (UniProt P25021); details: Compound concentration 10.0 uM
Histamine H2 receptor (Homo sapiens), sequence (P25021 whole entry): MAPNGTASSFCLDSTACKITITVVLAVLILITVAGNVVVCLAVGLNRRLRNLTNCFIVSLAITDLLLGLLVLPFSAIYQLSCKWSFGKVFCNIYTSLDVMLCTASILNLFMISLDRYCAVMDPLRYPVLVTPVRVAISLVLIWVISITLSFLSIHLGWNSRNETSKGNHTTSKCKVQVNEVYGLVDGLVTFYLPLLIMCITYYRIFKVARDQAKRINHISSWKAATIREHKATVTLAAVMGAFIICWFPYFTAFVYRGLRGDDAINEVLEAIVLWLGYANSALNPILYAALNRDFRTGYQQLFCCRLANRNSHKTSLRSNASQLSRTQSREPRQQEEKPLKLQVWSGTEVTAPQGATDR

[9] = biological target: Motilin receptor (Homo sapiens) (UniProt O43193); details: Compound concentration 10.0 uM
[10] = biological target: Sodium-dependent noradrenaline transporter (Homo sapiens, UniProt P23975); assay: GPCRScan assay: inhibition of NET; parameters: radioligand conc. used [nm] 1.3 – 5.0, parental cells stable HEK
Sodium-dependent noradrenaline transporter, sequence (P23975 whole entry): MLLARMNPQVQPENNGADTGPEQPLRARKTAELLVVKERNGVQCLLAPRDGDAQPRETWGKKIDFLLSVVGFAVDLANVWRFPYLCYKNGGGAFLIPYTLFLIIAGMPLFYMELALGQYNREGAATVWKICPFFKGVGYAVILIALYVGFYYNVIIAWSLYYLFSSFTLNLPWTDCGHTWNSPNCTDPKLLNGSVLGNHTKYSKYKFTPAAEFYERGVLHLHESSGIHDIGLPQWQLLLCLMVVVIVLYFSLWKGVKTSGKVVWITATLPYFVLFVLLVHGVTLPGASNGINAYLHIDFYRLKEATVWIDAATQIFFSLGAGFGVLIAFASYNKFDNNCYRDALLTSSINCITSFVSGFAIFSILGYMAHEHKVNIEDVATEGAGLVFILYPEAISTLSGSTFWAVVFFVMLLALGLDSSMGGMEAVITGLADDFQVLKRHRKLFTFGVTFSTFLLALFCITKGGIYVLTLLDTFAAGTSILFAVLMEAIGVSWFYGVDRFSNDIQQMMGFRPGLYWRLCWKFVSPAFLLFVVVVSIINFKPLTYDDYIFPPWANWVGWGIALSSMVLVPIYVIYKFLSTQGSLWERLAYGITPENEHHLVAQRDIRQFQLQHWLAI

[11] = biological target: GABA-A receptor; anion channel; assay: GPCRScan assay: inhibition of GABAA/BZP; assay type: protein-complex assay, Rattus norvegicus; parameters: radioligand conc. used [nm] 0.6 – 4.0, parental cells brain tissue
[12] = biological target: Epidermal growth factor receptor (Homo sapiens) (UniProt P00533); assay: Inhibition of Epidermal Growth Factor (EGF) at 10 µM in the Eurofins-Panlabs radioligand binding assay (Eurofins_assay_225510); details: Compound concentration 10.0 uM
Epidermal growth factor receptor (Homo sapiens), sequence (P00533 whole entry): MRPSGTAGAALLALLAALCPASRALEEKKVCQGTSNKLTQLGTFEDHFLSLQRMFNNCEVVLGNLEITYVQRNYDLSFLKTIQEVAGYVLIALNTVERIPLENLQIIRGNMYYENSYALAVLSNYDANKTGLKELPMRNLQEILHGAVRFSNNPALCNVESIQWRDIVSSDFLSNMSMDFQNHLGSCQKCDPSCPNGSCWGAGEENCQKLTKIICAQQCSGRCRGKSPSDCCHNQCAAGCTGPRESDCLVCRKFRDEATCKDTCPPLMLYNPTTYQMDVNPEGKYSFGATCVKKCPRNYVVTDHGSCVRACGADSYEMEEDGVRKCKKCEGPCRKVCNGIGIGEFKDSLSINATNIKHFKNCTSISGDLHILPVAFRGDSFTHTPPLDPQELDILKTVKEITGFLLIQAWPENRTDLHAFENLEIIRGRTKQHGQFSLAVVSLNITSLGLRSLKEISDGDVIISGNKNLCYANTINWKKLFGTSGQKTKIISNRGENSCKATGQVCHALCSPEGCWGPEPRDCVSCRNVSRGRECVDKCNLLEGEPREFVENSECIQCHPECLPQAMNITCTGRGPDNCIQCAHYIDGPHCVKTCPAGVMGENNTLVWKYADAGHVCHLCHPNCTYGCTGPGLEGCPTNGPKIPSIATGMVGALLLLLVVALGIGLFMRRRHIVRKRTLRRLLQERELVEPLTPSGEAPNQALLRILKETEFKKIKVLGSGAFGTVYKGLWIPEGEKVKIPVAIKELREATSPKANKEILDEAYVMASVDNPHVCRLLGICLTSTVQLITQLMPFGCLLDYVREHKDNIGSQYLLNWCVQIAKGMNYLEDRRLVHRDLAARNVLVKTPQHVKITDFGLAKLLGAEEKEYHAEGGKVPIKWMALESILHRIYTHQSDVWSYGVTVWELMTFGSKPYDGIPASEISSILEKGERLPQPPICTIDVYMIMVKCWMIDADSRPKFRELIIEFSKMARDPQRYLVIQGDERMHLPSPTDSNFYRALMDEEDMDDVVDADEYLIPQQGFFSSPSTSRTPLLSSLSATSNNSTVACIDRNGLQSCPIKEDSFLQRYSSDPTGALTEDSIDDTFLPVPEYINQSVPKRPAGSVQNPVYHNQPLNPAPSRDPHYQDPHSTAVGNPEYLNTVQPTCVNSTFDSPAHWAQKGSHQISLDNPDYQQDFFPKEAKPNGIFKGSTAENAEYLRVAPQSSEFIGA

[13] = biological target: Gamma-aminobutyric acid type B receptor subunit 1 (Homo sapiens) (UniProt Q9UBS5); assay: Inhibition of GABAB1A at compound concentration of 10.0 uM in the Eurofins-Panlabs radioligand binding assay (Eurofins_assay_228610); parameters: ligand concentration 4 nM; details: Compound concentration 10.0 uM
[14] = biological target: Glutamate receptor ionotropic, kainate (Rattus norvegicus) (UniProt P22756+Q01812+P42260+P42264+Q63273); assay: Inhibition of Glutamate, Kainate at 10 µM in the Eurofins-Panlabs radioligand binding assay (Eurofins_assay_232700); details: Compound concentration 10.0 uM
[15] = Inhibition of Atrial Natriuretic Factor (ANF) at 10 µM in the Eurofins-Panlabs radioligand binding assay (Eurofins_assay_211000); details: Cavia porcellus; Compound concentration 10 uM; Assay protocol publication PMID: 2408776; Detection method Radioligand Binding; Incubation temperature 4 °C; Incubation time 60 min; Ligand Bmax 0.013 pM/ mg protein; Ligand Kd 0.14 nM; Ligand [125I] ANF (rat); Ligand concentration 0.016 nM; Ligand specific binding 78 %; Non-specific ligand with concentration 0.1 µM ANF (rat); Reference compound ANF (rat); Source of …
[16] = biological target: T1, Muscarinic acetylcholine receptor M5 (Homo sapiens) (UniProt P08912); assay: Inhibition of Muscarinic M5 at 10 µM in the Eurofins-Panlabs radioligand binding assay (Eurofins_assay_253010); parameters: ligand concentration 0.8 nM; details: Compound concentration 10.0 uM
T1 sequence (whole entry): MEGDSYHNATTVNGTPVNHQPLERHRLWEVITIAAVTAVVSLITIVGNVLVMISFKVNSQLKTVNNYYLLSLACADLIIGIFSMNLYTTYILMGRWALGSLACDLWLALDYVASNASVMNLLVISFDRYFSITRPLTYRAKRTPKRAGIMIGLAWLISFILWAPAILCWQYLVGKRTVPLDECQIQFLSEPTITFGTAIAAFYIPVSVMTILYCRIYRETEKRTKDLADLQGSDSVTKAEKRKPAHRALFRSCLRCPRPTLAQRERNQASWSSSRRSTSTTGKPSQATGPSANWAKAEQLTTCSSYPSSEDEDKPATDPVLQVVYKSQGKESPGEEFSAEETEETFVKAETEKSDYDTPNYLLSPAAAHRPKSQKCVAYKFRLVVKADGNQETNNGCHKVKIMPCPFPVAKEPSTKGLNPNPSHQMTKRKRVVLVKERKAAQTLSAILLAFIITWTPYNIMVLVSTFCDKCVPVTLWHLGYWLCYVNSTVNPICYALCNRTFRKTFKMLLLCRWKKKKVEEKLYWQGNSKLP

[17] = biological target: Substance-K receptor (Homo sapiens) (UniProt P21452); assay: Inhibition of Tachykinin NK2 at 10 µM in the Eurofins-Panlabs radioligand binding assay (Eurofins_assay_255600); parameters: ligand concentration 0.5 nM; details: Compound concentration 10.0 uM
Substance-K receptor (Homo sapiens), sequence (P21452 whole entry): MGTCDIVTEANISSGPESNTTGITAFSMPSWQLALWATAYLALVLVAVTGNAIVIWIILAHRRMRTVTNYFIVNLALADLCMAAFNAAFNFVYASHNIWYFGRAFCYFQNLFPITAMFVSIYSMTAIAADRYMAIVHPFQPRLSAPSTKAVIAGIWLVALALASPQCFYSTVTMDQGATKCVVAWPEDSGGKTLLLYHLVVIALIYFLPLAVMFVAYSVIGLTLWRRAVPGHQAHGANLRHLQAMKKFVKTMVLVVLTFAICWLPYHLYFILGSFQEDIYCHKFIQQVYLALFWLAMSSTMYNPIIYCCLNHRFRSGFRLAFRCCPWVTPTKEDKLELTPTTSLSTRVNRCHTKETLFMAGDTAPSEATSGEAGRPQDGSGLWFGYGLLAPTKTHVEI

[18] = biological target: Calcium/calmodulin-dependent protein kinase type II subunit alpha (Homo sapiens) (UniProt Q9UQM7); assay: Inhibition of CaMKIIalpha(h) at 10.0 µM in the Eurofins Kinase panel; details: Compound concentration 10.0 uM
[19] = biological target: Glycogen synthase kinase-3 beta (Homo sapiens) (UniProt P49841); assay: Inhibition of GSK3beta(h) at 10.0 µM in the Eurofins Kinase panel; details: Compound concentration 10.0 uM
Glycogen synthase kinase-3 beta (Homo sapiens), sequence (P49841 whole entry, looked up): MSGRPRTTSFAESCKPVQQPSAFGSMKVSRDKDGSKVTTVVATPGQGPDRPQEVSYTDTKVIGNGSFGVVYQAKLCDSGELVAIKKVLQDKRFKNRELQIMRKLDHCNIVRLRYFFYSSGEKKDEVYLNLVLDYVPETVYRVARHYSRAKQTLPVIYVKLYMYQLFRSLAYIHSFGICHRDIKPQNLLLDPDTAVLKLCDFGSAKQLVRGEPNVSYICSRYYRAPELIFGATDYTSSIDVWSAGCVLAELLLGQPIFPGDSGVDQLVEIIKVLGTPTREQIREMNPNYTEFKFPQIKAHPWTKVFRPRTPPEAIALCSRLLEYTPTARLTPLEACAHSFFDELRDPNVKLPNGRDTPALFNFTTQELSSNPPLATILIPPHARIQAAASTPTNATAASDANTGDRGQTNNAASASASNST

[20] = biological target: RAC-alpha serine/threonine-protein kinase (Homo sapiens) (UniProt P31749); assay: Inhibition of PKBalpha(h) at 10.0 µM in the Eurofins Kinase panel; details: Compound concentration 10.0 uM
[21] = biological target: Tyrosine-protein kinase SYK (Homo sapiens) (UniProt P43405); assay: Inhibition of Syk(h) at 10.0 µM in the Eurofins Kinase panel; details: Compound concentration 10.0 uM
[22] = biological target: Mitogen-activated protein kinase kinase kinase 20 (Homo sapiens) (UniProt Q9NYL2); assay: Inhibition of ZAK(h) at 10.0 µM in the Eurofins Kinase panel; details: Compound concentration 10.0 uM
[23] = biological target: T2, Alpha-1A adrenergic receptor (Homo sapiens) (UniProt P35348); details: Compound concentration 10.0 uM
T2 sequence (whole entry): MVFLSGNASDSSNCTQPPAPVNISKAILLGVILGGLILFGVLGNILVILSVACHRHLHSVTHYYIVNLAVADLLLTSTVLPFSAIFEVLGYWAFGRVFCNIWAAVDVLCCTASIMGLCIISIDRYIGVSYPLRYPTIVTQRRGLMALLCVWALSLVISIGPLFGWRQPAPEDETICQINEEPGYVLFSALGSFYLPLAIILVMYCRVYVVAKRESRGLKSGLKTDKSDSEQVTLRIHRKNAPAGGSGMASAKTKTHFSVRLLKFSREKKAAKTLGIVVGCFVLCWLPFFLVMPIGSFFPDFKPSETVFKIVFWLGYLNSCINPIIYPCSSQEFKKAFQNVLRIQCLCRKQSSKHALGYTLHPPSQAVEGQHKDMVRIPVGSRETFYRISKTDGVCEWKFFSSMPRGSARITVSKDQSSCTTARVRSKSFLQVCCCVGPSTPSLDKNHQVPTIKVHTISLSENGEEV

[24] = biological target: Beta-1 adrenergic receptor (Homo sapiens) (UniProt P08588); details: Compound concentration 10.0 uM
Beta-1 adrenergic receptor (Homo sapiens), sequence (P08588 whole entry, looked up): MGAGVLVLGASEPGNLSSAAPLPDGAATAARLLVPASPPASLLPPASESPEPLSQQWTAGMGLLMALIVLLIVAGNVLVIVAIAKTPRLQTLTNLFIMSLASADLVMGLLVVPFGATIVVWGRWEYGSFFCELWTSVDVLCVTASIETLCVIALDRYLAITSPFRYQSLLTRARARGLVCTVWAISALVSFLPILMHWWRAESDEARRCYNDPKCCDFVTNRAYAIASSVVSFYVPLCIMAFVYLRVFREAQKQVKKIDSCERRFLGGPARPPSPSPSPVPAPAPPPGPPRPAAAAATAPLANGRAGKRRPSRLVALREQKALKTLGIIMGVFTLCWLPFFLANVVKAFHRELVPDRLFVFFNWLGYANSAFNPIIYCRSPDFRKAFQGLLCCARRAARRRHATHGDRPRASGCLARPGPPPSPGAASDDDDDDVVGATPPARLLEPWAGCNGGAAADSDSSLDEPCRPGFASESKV

IC50 [1]: > 10000 nM (not active)
inhibition [2]: -7.81%
inhibition [3]: -9.83%
inhibition [4]: -3.84%
inhibition [5]: -4.87%
inhibition [6]: 0.22%
inhibition [7]: 4.92%
inhibition [8]: 20%
inhibition [9]: 12%
Structure (SMILES): O=c1n(Cc2cncn2-c2cccc(Cl)c2)nc(-c2ccc(Cl)cc2)n1C[C@H](O)C(F)(F)F

Structure (SMILES): C[C@H](O)c1nc(Cn2nc(-c3ccc(Cl)cc3)n(C[C@H](O)C(F)(F)F)c2=O)nn1-c1cccc(Cl)c1 [PECAVAPTAN]
Ki ([10]; read-out: Ki): 1320 nM
Ki ([10]; read-out: pKi (converted)): 1320 nM
Ki [11]: 2610 nM
pKi [11]: 5.58
inhibition [12]: 14%
inhibition [13]: -4%
inhibition [14]: -4%
inhibition at 10 µM [15]: 1% (not active)
inhibition [16]: 6%
inhibition [17]: 30%
inhibition [18]: -6.92%
inhibition [19]: -4.15%
inhibition [20]: -3.88%
inhibition [21]: -8.56%
inhibition [22]: -4.87%
inhibition [23]: -2.04%
inhibition [24]: -7.44%
